# In patent US12616700B2, “Therapeutic regimen” (Novartis AG, priority 2017, dated 2026):
# Like-named read-outs stand apart in the source and are kept apart here.
# Key:
# [1] = type: in vitro ADME
# Experimental: Lumefantrine concentration was determined by a validated Liquid chromatography-Mass spectrometry (LC-MS/MS) method with a Lower Limit of Quantification (LLOQ) of 50 ng/mL. Briefly, the bioanalytical method consisted of protein precipitation followed by solid phase extraction of human plasma samples and analysis of diluted samples by LC-MS/MS in Multiple Reaction Monitoring (MRM) positive mode using Electrospray Ionization (ESI) as the ionization technique. The lower and upper limits of quantification for linear range were 50.0 ng/mL and 20000 ng/mL respectively using […] of human plasma. Lumefantrine in human plasma is stable for 44 hours at room temperature; 9 months at ≤−70° C.; 3 freeze/thaw cycles at ≤−70° C. The extract is stable for 100 hours in an autosampler at 8° C. The stability data could cover the period from sampling to analysis of all study samples. For eight points calibration concentrations (50, 100, 200, 500, 2000, 5000, 16000 and 20000 ng/mL) bias was within the range of 15.0% at all concentrations except for LLOQ (50 ng/mL) for which it was within the range of 20.0%. For quality control samples (150 ng/mL, 2500 ng/mL and 15000 ng/mL) bias was within the range of 15.0% for at least ⅔ of the individual values.
# [2] = cited from earlier work
# [3] = Dog study of lumefantrine-SDF and KAF156 alone and co-dosed (Example 6); type: in vivo; settings: for Cmax / AUC(0-inf) / AUC(0-t) / half-life / Tmax: po, 100 mg; for AUC(0-inf): read-out: AUCinf, Mean; for AUC(0-t): read-out: AUClast, Mean; for half-life: read-out: T½, Mean (converted)
# Experimental: The study design is described in the table below. To stimulate gastric secretion, each animal (dog) received a single 6-μg/kg intramuscular injection of pentagastrin approximatively 60 minutes prior to test article administration. Washout between each treatment was approximatively 7-8 days. [table]
# [4] = system: drug-sensitive and a broad panel of drug resistant malaria strains; settings: cited from earlier work
# P. falciparum = settings: in vitro; cited from earlier work
# P. vivax = settings: in vitro; cited from earlier work
# [5] = system: P. vivax or P. falciparum; settings: cited from earlier work
# liver hypnozoites = settings: cited from earlier work
# Plasmodium = settings: causal prophylactic protection in animal infection models; cited from earlier work
# [6] = P. falciparum malaria, multiple-dose cohort
# [7] = Dog 3 (emesis after dosing in Phase 5)
# [8] = dog, in vivo, Phase 2 (Combo), dog
# [9] = dog, in vivo, Phase 5 (Mono), dog
compound,measurement,setting,value
"CCCCN(CCCC)CC(O)c1cc(Cl)cc2c1-c1ccc(Cl)cc1/C2=C/c1ccc(Cl)cc1 (stereo not drawn) [Lumefantrine, lumefantrine]",stability of the extract,"[1]; human, 100 hours",100 h
same,stability in human plasma,"[1]; plasma, 44 hours",44 h
same,increase of bioavailability by food,[2]; in vivo,up to 16 fold
same,increase of lumefantrine exposure when administered together with KAF156,"[3]; dog, in vivo",around 1.5 fold
"CC1(C)c2nc(-c3ccc(F)cc3)c(Nc3ccc(F)cc3)n2CCN1C(=O)CN [KAF156, 2-amino-1-(2-(4-fluorophenyl)-3-(4-fluorophenylamino)-8,8-dimethyl-5,6-dihydroimidazo[1,2-a]pyrazin-7(8H)-yl)ethanone]",potency against drug-sensitive versus drug resistant malaria strains,[4],equally potent
same,"EC50, erythrocytic replication life cycle stages (blood stages)",P. falciparum,low nanomolar
same,"EC50, erythrocytic replication life cycle stages (blood stages)",P. vivax,low nanomolar
same,serious adverse events,[5]; 400 mg/day for 3 days or single 800 mg,No serious adverse event was reported
same,patients who reported nausea,[5]; [6],1 patient
same,patients who vomited,[5]; [6],1 patient
same,"activity against vivax and falciparum malaria, including artemisinin-resistant parasites",[5]; malaria patients,has activity
same,half-life,[5]; malaria patients,about 50 hours
same,patients who vomited,"[5]; single 800-mg dose, besides one withdrawn for repeated vomiting",Five
same,patients who reported nausea,[5]; single 800-mg dose,Four
same,activity against liver hypnozoites,liver hypnozoites,has not demonstrated activity
same,activity in liver stage models of Plasmodium infection,Plasmodium,has shown activity
same,AUCinf Ratio (Phase 2:Phase 5),[3]; Dog 1,2.6
same,AUClast Ratio (Phase 2:Phase 5),[3]; Dog 1,2.7
same,Cmax Ratio (Phase 2:Phase 5),[3]; Dog 1,2.6
same,AUCinf Ratio (Phase 2:Phase 5),[3]; Dog 2,2.8
same,AUClast Ratio (Phase 2:Phase 5),[3]; Dog 2,2.9
same,Cmax Ratio (Phase 2:Phase 5),[3]; Dog 2,2.5
same,AUCinf Ratio (Phase 2:Phase 5),[3]; [7],5.3
same,AUClast Ratio (Phase 2:Phase 5),[3]; [7],5.2
same,Cmax Ratio (Phase 2:Phase 5),[3]; [7],3.3
same,AUCinf Ratio (Phase 2:Phase 5),[3]; Mean,3.6
same,AUClast Ratio (Phase 2:Phase 5),[3]; Mean,3.6
same,Cmax Ratio (Phase 2:Phase 5),[3]; Mean,2.8
same,Cmax,"[3]; dog, in vivo, Phase 2 (Combo)",1.2 µg/mL
same,AUC(0-inf),[3]; [8],45.4 µg·h/mL
same,AUC(0-t),[3]; [8],36.7 µg·h/mL
same,half-life,"[3]; dog, in vivo, Phase 2 (Combo), with Lumefantrine-SDF sachet, dog",31 h
same,Tmax,"[3]; dog, in vivo, Phase 2 (Combo), Tmax 1, 1, 8 hr in 3 dogs",3.3 h
same,Cmax,"[3]; dog, in vivo, Phase 5 (Mono)",0.451 µg/mL
same,Tmax,"[3]; dog, in vivo, Phase 5 (Mono)",1 h
same,AUC(0-inf),[3]; [9],14.4 µg·h/mL
same,AUC(0-t),[3]; [9],11.6 µg·h/mL
same,half-life,[3]; [9],33.2 h
CO[C@H]1O[C@@H]2O[C@@]3(C)CC[C@H]4[C@H](C)CC[C@@H]([C@H]1C)[C@@]24OO3 [artemether],increase of bioavailability by food,[2]; Coartem administered with high fat food,up to 3 fold
